In ChEMBL document CHEMBL2074296, “Kinetic analysis of hepatobiliary transport of organic anions in Eisai hyperbilirubinemic mutant rats” (J Pharmacol Exp Ther, 1993):

Each compound was assayed against T1, ATP-binding cassette sub-family C member 2 (Rattus norvegicus, UniProt Q63120) (assay: TP_TRANSPORTER: biliary excretion in SD rat). Conditions: in vivo.
Assay type: functional, organism-based, Sprague-Dawley, Bile

T1 sequence (Q63120 whole entry): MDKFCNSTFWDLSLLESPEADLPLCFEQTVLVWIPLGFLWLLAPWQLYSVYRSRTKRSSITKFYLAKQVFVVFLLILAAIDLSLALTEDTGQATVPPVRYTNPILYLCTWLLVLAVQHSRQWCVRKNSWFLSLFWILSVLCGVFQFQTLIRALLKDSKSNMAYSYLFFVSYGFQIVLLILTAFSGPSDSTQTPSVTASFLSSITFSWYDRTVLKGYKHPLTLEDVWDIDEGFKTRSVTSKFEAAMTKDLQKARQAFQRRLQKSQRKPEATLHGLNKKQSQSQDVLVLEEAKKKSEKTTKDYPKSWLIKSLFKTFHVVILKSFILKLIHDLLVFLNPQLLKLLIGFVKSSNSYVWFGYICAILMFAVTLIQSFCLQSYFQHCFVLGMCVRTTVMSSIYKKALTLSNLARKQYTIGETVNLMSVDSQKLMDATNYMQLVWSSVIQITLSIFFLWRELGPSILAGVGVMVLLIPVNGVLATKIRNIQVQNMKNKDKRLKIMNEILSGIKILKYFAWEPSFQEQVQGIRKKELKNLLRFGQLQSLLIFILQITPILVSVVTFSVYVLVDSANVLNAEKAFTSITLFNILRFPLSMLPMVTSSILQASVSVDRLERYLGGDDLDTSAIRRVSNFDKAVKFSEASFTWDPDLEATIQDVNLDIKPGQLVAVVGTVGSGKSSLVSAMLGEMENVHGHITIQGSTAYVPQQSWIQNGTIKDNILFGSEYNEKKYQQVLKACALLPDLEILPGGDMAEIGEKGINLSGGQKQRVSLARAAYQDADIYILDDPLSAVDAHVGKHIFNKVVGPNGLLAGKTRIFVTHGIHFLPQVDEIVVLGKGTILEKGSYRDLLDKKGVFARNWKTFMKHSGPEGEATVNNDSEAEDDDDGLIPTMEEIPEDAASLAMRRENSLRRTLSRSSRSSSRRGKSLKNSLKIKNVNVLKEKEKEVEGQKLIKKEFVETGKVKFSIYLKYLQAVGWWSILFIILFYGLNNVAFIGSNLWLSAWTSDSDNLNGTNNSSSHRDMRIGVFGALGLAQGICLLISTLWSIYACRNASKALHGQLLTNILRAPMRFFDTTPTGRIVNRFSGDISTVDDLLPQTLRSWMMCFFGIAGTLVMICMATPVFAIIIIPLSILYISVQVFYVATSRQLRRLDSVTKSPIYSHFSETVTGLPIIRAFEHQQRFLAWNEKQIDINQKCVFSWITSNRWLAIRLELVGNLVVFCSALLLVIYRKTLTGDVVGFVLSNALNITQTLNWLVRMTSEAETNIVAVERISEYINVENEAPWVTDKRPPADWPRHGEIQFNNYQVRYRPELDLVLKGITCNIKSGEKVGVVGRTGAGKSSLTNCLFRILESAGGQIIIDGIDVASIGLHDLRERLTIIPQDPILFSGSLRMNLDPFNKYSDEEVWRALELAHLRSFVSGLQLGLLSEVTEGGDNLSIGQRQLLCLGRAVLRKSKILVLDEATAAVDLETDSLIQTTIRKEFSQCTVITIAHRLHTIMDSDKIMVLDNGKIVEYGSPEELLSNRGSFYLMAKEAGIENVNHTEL

Activity, substrate [+]:
O=C1OC(c2ccc(OS(=O)(=O)O)cc2)(c2ccc(OS(=O)(=O)O)cc2)c2c(Br)ccc(Br)c21 [DIBROMOSULFOPHTHALEIN]
CO/N=C(\C(=O)N[C@@H]1C(=O)N2C(C(=O)O)=C(CSc3nc(C)c(CC(=O)O)s3)CS[C@H]12)c1csc(N)n1 [CEFODIZIME]
CC1(C)C(/C=C/C=C/C=C/C=C2/N(CCCCS(=O)(=O)[O-])c3ccc4ccccc4c3C2(C)C)=[N+](CCCCS(=O)(=O)[O-])c2ccc3ccccc3c21.[Na+] [INDOCYANINE GREEN]

What follows are compounds tested against T1, ATP-binding cassette sub-family C member 2 (assay: TP_TRANSPORTER: biliary excretion in EHBR rat). Conditions: in vivo.
Assay type: functional, organism-based, Bile

Activity, substrate [+]:
O=C1OC(c2ccc(OS(=O)(=O)O)cc2)(c2ccc(OS(=O)(=O)O)cc2)c2c(Br)ccc(Br)c21 [DIBROMOSULFOPHTHALEIN]
CO/N=C(\C(=O)N[C@@H]1C(=O)N2C(C(=O)O)=C(CSc3nc(C)c(CC(=O)O)s3)CS[C@H]12)c1csc(N)n1 [CEFODIZIME]
CC1(C)C(/C=C/C=C/C=C/C=C2/N(CCCCS(=O)(=O)[O-])c3ccc4ccccc4c3C2(C)C)=[N+](CCCCS(=O)(=O)[O-])c2ccc3ccccc3c21.[Na+] [INDOCYANINE GREEN]
